According to ChEMBL document CHEMBL1154198, “Chemical genetics of Plasmodium falciparum” (Nature, 2010):

What was measured:
Plasmodium falciparum [1] = experiment: ST_JUDE: Plasmodium falciparum 3D7 EC50 (uM) as measured by SYBR green dye; type: functional, organism-based
Plasmodium falciparum [2] = experiment: ST_JUDE: Plasmodium falciparum K1 EC50 (uM) as measured by SYBR green dye; type: functional, organism-based

SMILES | EC50 (Plasmodium falciparum [1]) [µM] | EC50 (Plasmodium falciparum [2]) [µM]
CC[n+]1c(/C=C/c2ccc(N(C)C)cc2)sc2cc(NC(C)=O)ccc21 | 3.31 | 4.32
O=C(Nc1cc(Cl)cc(Cl)c1)Nc1ccc(Cl)c(Cl)c1 | 0.772 | 0.496
Cc1ccnc(NC(c2cccc(Cl)c2Cl)c2ccc3cccnc3c2O)c1 (stereo not given) | 1.5 | 1.67
COc1cccc(NC(=O)Cn2c(C)c(C(=O)C(F)(F)F)c3ccccc32)c1 | > 15 | 1.62
CCOC(=O)c1c(CN(CC)CC)n(-c2ccccc2)c2cc(Br)c(O)cc12 | 1.78 | 3.45
COc1ccc(OC)c(NC(=O)CSc2nc(-c3ccccc3Cl)ns2)c1 | 1.25 | 1.42
CCOC(=O)c1nnn(-c2nonc2N)c1-c1ccc(Cl)cc1 | > 15 | 3.47
NNC(=O)CNC(c1ccccc1)c1cc(Br)ccc1NC(=O)c1ccccc1Br (stereo not given) | 1.89 | 1.65
COc1ccc2c(ccc(/C=C3\C=CC=CN3C)[n+]2C)c1 | 1.17 | 0.842
O=C(Cc1ccc(Br)cc1)OCC(=O)c1ccc(F)cc1 | > 15 | > 15
CO/C(O)=C1\C(C)=NC2=C(C(=O)CC(c3ccccc3OC)C2)C1c1ccc(OC)c(OC)c1 (stereo not given) | > 15 | > 15
Cc1cccc(NC(c2ccc(Br)cc2)c2ccc3cccnc3c2O)n1 (stereo not given) | 1.94 | 3.54
COc1ccc(CCNC(=S)Nc2ccccc2Cl)cc1OC | 1.29 | 1.36
CCOc1ccccc1NC(=S)N1CCN(c2ccc(OC)cc2)C(C)C1 (stereo not given) | 2.85 | 4.26
Cc1ccc2nc(C)cc(Nc3cccc(C(F)(F)F)c3)c2c1 | 0.879 | 6.01
CCOC(=O)C1=C(Nc2ccc(Cl)cc2)S/C(=C\c2cccc(OC)c2O)C1=O | > 15 | 4
CCN(CC)c1ccc(/C=C/C2=[N+](C)c3ccc(C(=O)OC)cc3C2(C)C)cc1 | 3.08 | > 15
CSCCC(=O)N(C)C(Cc1ccc(F)cc1)C1CCN(C(=O)c2cc3ccccc3n2C)CC1 (stereo not given) | > 15 | > 15
O=C(c1ccco1)N(Cc1cccnc1)c1nc2ccc(F)cc2s1 | > 15 | > 15
C#CCOc1cc(Br)c(C2CC(=O)Nc3ccc4ccccc4c32)cc1OC (stereo not given) | 3.96 | 2.96
Cc1ccc(NC(=O)CSc2nncc(O)n2)cc1 | 4.88 | 0.924
COc1ccc(N2CCN(C(CNC(=O)c3ccc(C(C)(C)C)cc3)c3ccco3)CC2)cc1 (stereo not given) | > 15 | 1.51

SMILES | EC50 (Plasmodium falciparum [1]) [µM] | EC50 (Plasmodium falciparum [2]) [µM]
Cc1ccccc1NC(=O)C1c2ccccc2C(=O)N(C2CCCC2)C1c1cccs1 (stereo not given) | 2.82 | 4.34
COCCn1/c(=N/C(=O)c2nc3ccccc3s2)sc2cc(S(C)(=O)=O)ccc21 | > 15 | > 15
CC(=O)N(C1=C(N2CCOCC2)C(=O)c2ccccc2C1=O)c1ccc(C(=O)O)cc1 | > 15 | 2.64
COc1ccc(Cl)cc1N(C)C(=O)c1cc2c(s1)-c1ccccc1S(=O)(=O)C2 | 1.35 | 1.78
COc1ccc(-n2c(=O)c3c4c(sc3n3c(SCc5ccccc5)nnc23)COC(C)(C)C4)cc1 | 11.3 | > 15
Cc1cn2c(nc3c2c(=O)n(Cc2ccc(Br)cc2)c(=O)n3C)o1 | > 15 | > 15
Oc1c(CN2CCN(c3cccc(C(F)(F)F)c3)CC2)cc(COCc2ccccc2)c2cccnc12 | 2.33 | 1.45
COc1ccc(NC2=C(N3CCOCC3)C(=O)c3ccccc3C2=O)cc1 | > 15 | 0.286
CCc1cccc(NC(=O)c2cc3c(-c4ccc(OC)c(OC)c4)nn(C)c3s2)c1 | > 15 | > 15
Cc1ccc(NC(=O)Nc2cccc(Cl)c2)cc1F | > 15 | > 15
C[n+]1ccccc1-c1nc2ccccc2s1 | > 15 | 5.81
CCCN(CCC)CCCNC(=O)c1ccc2c(Cl)c3c(nc2c1)CCCC3 | > 15 | > 15
CC(C)(C)c1ccc(C(=O)CC(=O)c2cc(Cl)ccc2O)cc1 | > 15 | > 15
CC(C)Cc1ccc(S(=O)(=O)N2c3ccccc3CC2C)cc1 (stereo not given) | > 15 | > 15
O=C1CC(O)(C(F)(F)C(F)(F)OC(F)(F)F)Oc2ccc(Cl)cc21 (stereo not given) | > 15 | > 15
CCOc1ccc(NC(=O)C2c3cc(OC)c(OC)cc3C(=O)N(C)C2c2ccc(OC)cc2)cc1 (stereo not given) | > 15 | 1.07
CCc1ccc(OCC2c3cc(OC)c(OC)cc3CCN2C(=O)COc2ccccc2)cc1 (stereo not given) | > 15 | > 15
CCCO/C(O)=C1\C(C)=NC2=C(C(=O)CC(c3ccccc3OC)C2)C1c1ccc(OC)c(OC)c1 (stereo not given) | 3.85 | 3.8
CCN(CC)CCNC(=O)c1ccc(Cn2c(SCc3ccccc3C)nc3ccncc32)cc1 | 6.74 | > 15
CCN1CCN(c2cc(C)c3cc(NC(=S)N4CCC(N5CCCCC5)CC4)ccc3n2)CC1 | 5.91 | 7.89
Cc1cccc(-n2c(N)c(C#N)c3nc4ccccc4nc32)c1 | 4.2 | > 15
CCc1ccc(S(=O)(=O)/N=C2/C=C(Sc3nc[nH]n3)C(=O)c3ccccc32)cc1 | 4.79 | 6.99

SMILES | EC50 (Plasmodium falciparum [1]) [µM] | EC50 (Plasmodium falciparum [2]) [µM]
Cc1cccc2nc(Cn3c(=O)n(Cc4ccc5c(c4)OCO5)c(=O)c4ccc(C(=O)NC5CCCCC5)cc43)cc(=O)n12 | > 15 | > 15
CC[n+]1cccc2cc(OC)ccc21 | > 15 | > 15
C/C(Cl)=C\C[N+]1(C/C=C(\C)Cl)CCCCC1 | > 15 | > 15
CCc1cc2c(=O)c(-c3ccc(OC(C)C)cc3)coc2cc1OC(C)=O | > 15 | 4.25
CCOCC(=O)Nc1ccc(S(=O)(=O)N2CCC(c3nc4ccccc4[nH]3)CC2)cc1 | > 15 | > 15
CCOc1ccccc1N1CCN(Cc2cc(Br)cc(Br)c2O)CC1 | 8.24 | 3.78
Cc1cc(C)c[n+](C(C)C(=O)c2ccc(-c3ccccc3)cc2)c1 (stereo not given) | 2.86 | 2.53
COc1ccc(C2C(C(=O)Nc3cnc4ccccc4c3)c3ccccc3C(=O)N2C2CCCCC2)cc1 (stereo not given) | 1.63 | 3.37
COC(=O)c1cc(NS(=O)(=O)c2ccccc2[N+](=O)[O-])cc(C(=O)OC)c1 | > 15 | > 15
CC(C)(C)c1ccc2c(c1)CN(Cc1ccc(Cl)cc1)CO2 | 0.255 | 0.0389
CCOc1ccc(Nc2cc(C)nc3ccc(OCC)cc23)cc1 | 1.1 | 3.48
CC(=O)NC(c1ccc(C(C)C)cc1)c1ccc2cccnc2c1O (stereo not given) | 6.6 | 6.76
CC(C)C[C@@H](CO)Nc1c2ccccc2nc2ccccc12 | 2.85 | 4.3
COc1ccc2nc(N(Cc3cccnc3)C(=O)c3cccc(Cl)c3)sc2c1 | > 15 | > 15
COc1cc(CNCCc2ccc(Cl)cc2)cc(OC)c1O | 6.89 | > 15
CCCCn1c(=N)n(CC(O)c2ccc(Cl)cc2)c2ccccc21 (stereo not given) | 0.574 | 0.544
CCOc1cccc2sc(N(Cc3cccnc3)C(=O)c3ccccc3[N+](=O)[O-])nc12 | 5.31 | > 15
COC(=O)c1c(N)n(-c2ccc(F)cc2F)c2nc3ccccc3nc12 | 0.853 | 3.98
CCCCNc1nc(Nc2cccc(C)c2)c2cnn(-c3ccccc3)c2n1 | > 15 | 7.9
CC(C)(O)C#Cc1ccc([C@@H]2C[C@H]3CN(Cc4cccc(Cl)c4)C(=O)[C@]34CCCN24)cc1 | 4.64 | 5.79
COc1cc(C(NC(=O)CCl)NC(=O)CCl)ccc1OCC(C)C | 5.66 | 3.67
Cc1c(Cl)c(C(F)(F)F)nn1CC(=O)Nc1cccc(C(F)(F)F)c1 | > 15 | 4.43

SMILES | EC50 (Plasmodium falciparum [1]) [µM] | EC50 (Plasmodium falciparum [2]) [µM]
CCOc1ccc2c(c1)C(=NNC(=N)N)c1cc(OCC)ccc1-2 | 0.398 | 6.96
COc1cc(Br)c(C2C(C#N)=C(N)Oc3cc(O)ccc32)cc1OC (stereo not given) | > 15 | 5.8
Cc1ccc2c(c1)c1c(n2CC(O)Cn2cnc(-c3ccccc3)c2-c2ccccc2)CCCC1 (stereo not given) | 2.02 | 1.08
O=C(COc1ccc(Cl)cc1)N1CCN(Cc2cccc([N+](=O)[O-])c2)CC1 | > 15 | > 15
COc1ccc2sc(N(Cc3cccnc3)C(=O)c3ccc(C#N)cc3)nc2c1 | > 15 | > 15
CCOc1cc(C2C3=C(O)CC(c4ccc(OC)cc4)CC3=NC(C)=C2C(=O)OC)ccc1O (stereo not given) | > 15 | 5.36
COc1ccc(-c2nn(C)c3sc(C(=O)Nc4cccc(C(F)(F)F)c4)cc23)cc1OC | > 15 | > 15
Cc1ccc(-c2n(C)c3ccccc3[n+]2C)cc1 | 11.9 | > 15
Clc1cccc(C2Nc3ccccc3-c3nc4ccccc4n32)c1 (stereo not given) | > 15 | 4.63
CCCc1cc(O)nc(-n2nc(C)cc2NC(=O)c2ccc(Cl)cc2)n1 | > 15 | > 15
CCCCN(CCCC)CC1OCc2ccccc2CO1 | > 15 | > 15
Cc1cccc(C(=O)NCc2nnc(S)n2-c2cccc(C(F)(F)F)c2)c1 | > 15 | > 15
COc1ccc(N2C(=O)/C(=C/Nc3ccc(F)cc3)c3ccccc3C2=O)cc1 | > 15 | > 15
CCOc1cccc(CN2CCCC(C(=O)c3cccc(C(F)(F)F)c3)C2)c1O (stereo not given) | 3.34 | 1.09
C=CCN(CC=C)CCN1CCN(C(=O)Nc2cc(C(F)(F)F)cc(C(F)(F)F)c2)CC1 | 0.711 | 0.535
CCCCCn1c(=O)c2c(nc3n(-c4ccccc4OCC)c(C)cn23)n(C)c1=O | > 15 | > 15
C=CCN1C(=O)c2[nH]nc(-c3c(C)cc(C)cc3O)c2C1c1ccc(OCC)cc1 (stereo not given) | 2.74 | 1.72
CCOc1ccc(S(=O)(=O)NC2=C/C(=N\c3ccc(O)cc3)C(=O)c3ccccc32)cc1 | 1.25 | 1.03
CCCCCCn1c(N)c(C(=O)OC)c2nc3ccccc3nc21 | > 15 | > 15
